Patent US7888328B2, “Oral formulations of cladribine” (Ares Trading S.A., priority 2003, dated 2011)
In brackets after ≈: the same amount, converted by molar mass.

Assays:
[1] = Phase solubility study of cladribine in HPβCD solutions; format: physicochemical; conditions: aqueous hydroxypropyl-β-cyclodextrin (HPβCD) solution, aqueous with cosolvent or surfactant or cyclodextrin, thermodynamic from solid; with about 0.14 mole of HPβCD; complexation conditions of EXAMPLE 2; read-out: cladribine maintained dissolved (phase solubility)
Description: Generally, the complexation is conducted with heating, for example at about 45 to about 60° C. for a significant period of time, e.g., at least 6-9 hours; it is believed that even better results can be obtained by heating at up to about 80° C. for up to 24 hours. Excess precipitated cladribine is then removed and the cladribine concentration is subsequently measured. This concentration represents the amount of cladribine solubilized for a given amorphous cyclodextrin concentration. […] Consequently, the data points correspond to the amount of cladribine dissolved in aqueous HPβCD or other amorphous cyclodextrin under the selected conditions; when later lyophilized, the solution yields a complex cladribine-cyclodextrin complex which is an intimate amorphous admixture of (a) an amorphous inclusion complex of cladribine with an amorphous cyclodextrin and (b) amorphous free cladribine associated with amorphous cyclodextrin as a non-inclusion complex. If equilibrium conditions are reached during the complexation, the amorphous cladribine-cyclodextrin complex will be saturated with cladribine.
A phase solubility study can be carried out as follows. […] The excess, undissolved cladribine is removed by filtration. […] This process is repeated with different known concentrations of HPβCD until several data points are obtained. […]

[2] = Clinical study, relative bioavailability: plasma cladribine after oral formulations vs subcutaneous administration; format: in vivo, human (patients with MS); conditions: human, sc, 3.0 mg subcutaneous, single dose, n = 12
Description: This study was a 2 center, open-label, randomized, 4-way crossover single dose study using twelve patients with MS. Patients received randomly three different fixed oral doses (3.0 mg) and a fixed subcutaneous dose of 3.0 mg. The four treatment days were separated by a drug-free interval of at least 5 days. In each treatment period, blood samples were collected over a 24-hour period for evaluation of plasma cladribine.
The plasma concentration of cladribine was measured by a HPLC/MS/MS method. […] The limit of quantification was 100 pg/ml. Analysis of samples was carried out in 16 runs.
576 clinical plasma samples were analyzed and concentration values of cladribine were determined.

[3] = Clinical study, dose response and absolute bioavailability: plasma cladribine after oral doses vs intravenous infusion; format: in vivo, human (patients with MS); conditions: n = 26; for AUC(0-inf) / AUC(0-t) / Cmax / Tmax / half-life: human, plasma; for AUC(0-inf) / AUC(0-t) / Cmax: Geom Mean; for Tmax / half-life: Mean ± SD
Description: The objective of this study was to assess the systemic availability of cladribine after oral administration in two different fixed oral doses, in comparison with one fixed intravenous administration (reference formulation) in patients with MS (multiple sclerosis), and to evaluate the safety and tolerability of cladribine in this population.
This study was a 3 center, open-label, randomized, 3-way crossover single dose study using twenty-six patients with MS. […] The three treatment days were separated by a drug-free interval of at least 5 days. In each treatment period blood samples were collected over a 24-hour period for evaluation of plasma cladribine.
The plasma concentrations of cladribine were measured by a HPLC/MS/MS method. […] The limit of quantification was 100 pg/ml. Analysis of samples was carried out in 16 runs. Except the first run (which had to be rejected because of equipment failure), all other runs could be accepted. No calibrator had to be excluded from fitting of the calibration curve and accuracy of each quality control sample met the GLP requirements.
858 clinical plasma samples were analyzed and concentration values of cladribine were determined. The results were compiled and are summarized in the tables below [TABLES VII through X]. In these tables, the following definitions are applicable: Tmax is the time to reach maximum concentration in the plasma; T1/2 is the half-life of cladribine in the plasma; Cmax is the maximum concentration of cladribine in the plasma; AUCinf is the area under the curve for the measured data from zero extrapolated to infinity; AUCt is the area under the curve for the measured data (from zero to the last time point); Geom Mean is the geometric mean; CV is the coefficient of variation (relative standard deviation); LL is the lower limit; UL is the upper limit; σ^2 is the mean variance; σB^2 is the mean variance between subjects; σW^2 is the mean variance within subjects; CVT is the total coefficient of variation; and CVW is the coefficient of variation within subjects.

[4] = Oral Administration 10.0 mg vs 3.0 mg IV, dose normalized
[5] = Oral Administration 30.0 mg vs 3.0 mg IV, dose normalized
[6] = Oral Administration 3.0 mg (Batch N0120 3.0 mg tablets)
[7] = Oral Administration 10.0 mg (Batch N0126 10.0 mg tablets)

SMILES: Nc1nc(Cl)nc2c1ncn2[C@H]1C[C@H](O)[C@@H](CO)O1 [Cladribine, 2-chloro-2′-deoxyadenosine]
- solubility [1]: ~49 mM (≈ 14 mg/mL)
- AUC(0-inf) ([2]; Geom Mean): 57.3 ng·h/mL
- AUC(0-t) ([2]; Geom Mean): 54.7 ng·h/mL
- Cmax ([2]; Geom Mean): 23.2 ng/mL
- Tmax ([2]; Mean ± SD): 0.313 ± 0.113 h
- half-life ([2]; Mean ± SD): 6.69 ± 2.01 h
- Ratio of Oral to I.V. AUCinf [3, 4]: 39.1
- Ratio of Oral to I.V. AUCt [3, 4]: 39.4
- Ratio of Oral to I.V. AUCinf [3, 5]: 34.5
- Ratio of Oral to I.V. AUCt [3, 5]: 34.0
- CVT (total coefficient of variation) of AUCinf ([3]; dose-adjusted PK parameter): 29.2%
- CVT (total coefficient of variation) of AUCt ([3]; dose-adjusted PK parameter): 29.8%
- CVT (total coefficient of variation) of Cmax ([3]; dose-adjusted PK parameter): 43.0%
- CVW (coefficient of variation within subjects) of AUCinf ([3]; dose-adjusted PK parameter): 18.3%
- CVW (coefficient of variation within subjects) of AUCt ([3]; dose-adjusted PK parameter): 19.1%
- CVW (coefficient of variation within subjects) of Cmax ([3]; dose-adjusted PK parameter): 37.5%
- AUC(0-inf) ([3]; 3.0 mg IV infusion (1 hour)): 58.5 ng·h/mL
- AUC(0-t) ([3]; 3.0 mg IV infusion (1 hour)): 56.4 ng·h/mL
- Cmax ([3]; 3.0 mg IV infusion (1 hour)): 21.4 ng/mL
- Tmax ([3]; 3.0 mg IV infusion (1 hour)): 0.817 ± 0.397 h
- half-life ([3]; 3.0 mg IV infusion (1 hour)): 6.5 ± 1.27 h
- AUC(0-inf) [3, 6]: 20.2 ng·h/mL
- AUC(0-t) [3, 6]: 19.2 ng·h/mL
- Cmax [3, 6]: 5.61 ng/mL
- Tmax [3, 6]: 0.548 ± 0.3 h
- half-life [3, 6]: 5.85 ± 1.18 h
- AUC(0-inf) [3, 7]: 76.7 ng·h/mL
- AUC(0-t) [3, 7]: 74.5 ng·h/mL
- Cmax [3, 7]: 21.2 ng/mL
- Tmax [3, 7]: 0.558 ± 0.204 h
- half-life [3, 7]: 5.6 ± 0.75 h
- Ratio 10.0 mg/3.0 mg AUCinf ([3]; oral doses, dose normalized): 113.3
- Ratio 10.0 mg/3.0 mg AUCt ([3]; oral doses, dose normalized): 115.8
- Ratio 10.0 mg/3.0 mg Cmax ([3]; oral doses, dose normalized): 112.6
